Assays:
[1] = system: high molecular weight DNA in tissues of Mytilus edulis, Faxonius virilis and Alitta virens; test: Preservation of high molecular weight DNA in stored tissue, TapeStation % R and nY, statements covering several taxa; conditions: M. edulis and F. virilis, 3 months
Method: (§1) To evaluate the contributions of the three components of DESS to DNA preservation in tissues, DNA quality was compared among extracts of tissues from three aquatic invertebrate taxa preserved for various time intervals in DESS or one of six DESS-variant solutions in a full factorial design. Each of these six variants contained either one of the three components of DESS individually or one of the three possible pairwise combinations of two DESS components. […] All solutions were prepared at room temperature (22-24° C.) using distilled deionized water as the diluent.
Live specimens of M. edulis and F. virilis were stored on ice and live A. virens were stored at 4° C. prior to dissection. Gill, abdominal muscle and body tissue samples were collected immediately after euthanasia from specimens of M. edulis, F. virilis, and A. virens, respectively. […] DNA was extracted from the ninth subsample, hereafter referred to as fresh tissue, immediately after dissection without preservation. […]
After the assigned storage interval, each tissue sample was removed from its storage solution and reweighed. […] To control for changes in tissue weight during storage, a correction ratio was calculated by dividing the tissue weight prior to storage by the post storage weight. […]

[2] = system: high molecular weight DNA in tissues of Alitta virens; test: pH study: tissue stored 1 year in EDTA solutions at pH 8.0, 9.0, 10.0; conditions: A. virens, one year of storage, room temperature
Text: The tissues of 5 species of aquatic animals were stored in the resulting solutions at room temperature for periods ranging from 6 weeks to 12 months.

[3] = system: high molecular weight DNA in gill tissue of Mytilus edulis; test: Preservation of high molecular weight DNA in stored tissue, TapeStation % R and nY; conditions: M. edulis, 3 months, room temperature
Method: as §1
(§2) Live specimens of M. edulis and F. virilis were stored on ice and live A. virens were stored at 4° C. prior to dissection. Gill, abdominal muscle and body tissue samples were collected immediately after euthanasia from specimens of M. edulis, F. virilis, and A. virens, respectively. […] DNA was extracted from the ninth subsample, hereafter referred to as fresh tissue, immediately after dissection without preservation. […] Seven specimens of M. edulis, seven specimens of F. virilis and ten specimens of A. virens were assigned to each time interval for a total of 35 M. edulis, 35 F. virilis and 50 A. virens.
(§3) After the assigned storage interval, each tissue sample was removed from its storage solution and reweighed. […] To control for changes in tissue weight during storage, a correction ratio was calculated by dividing the tissue weight prior to storage by the post storage weight. Each extract subsample weight was then multiplied by the correction ratio to estimate the fresh tissue weight equivalent for that subsample. These values were then used to calculate normalized yield (see statistical analysis). DNA was extracted from tissues using the DNeasy Blood and Tissue Kit (Qiagen; Hilden, Germany) following the manufacturers recommended protocol with tissues digested overnight and DNA eluted by adding two sequential 50 μl volumes of Buffer AE for a total elution volume of 100 μl. […]

[4] = system: high molecular weight DNA in body tissue of Alitta virens; test: as above; conditions: A. virens, 3 months, room temperature
Method: as §1, §2, §3

[5] = system: high molecular weight DNA in tissues of Mytilus edulis, Faxonius virilis and Alitta virens; test: Qualitative DNA fragment length distribution by agarose gel electrophoresis, several taxa; conditions: M. edulis and F. virilis, 6 months, room temperature
Method: as §2

rat = conditions: oral; cited from earlier work

| SMILES | normalized high molecular weight DNA yield (nY) [1] | percent high molecular weight DNA recovered (% R) [1] | high molecular weight DNA yielded [2] | percent high molecular weight DNA recovered (% R), average [3] | normalized high molecular weight DNA yield (nY) [4] | percent high molecular weight DNA recovered (% R) [4] | high molecular weight DNA visualized by agarose gel electrophoresis [5] | LD50 (rat) |
| --- | --- | --- | --- | --- | --- | --- | --- | --- |
| CCO [EtOH, ethanol] | equal to or significantly greater than fresh tissues | equal to or significantly greater than fresh tissues | little or no high molecular weight DNA | 15.37% | performed significantly better than tissues preserved in DE, DSS, D and E | performed significantly better than tissues preserved in DE, DSS, D and E | evident | – |
| [Cl-].[Na+] [NaCl, sodium chloride] | – | – | – | – | – | – | – | 3,000 mg/kg |

Reference: patent publication US12480151B2, “DNA preservation in biological specimens using metal chelators” (Northeastern University, priority 2020, dated 2025)
